Results reported in US8962530B2, “Inflammatory bowel disease therapies” (Regents of the University of Colorado, priority 2007, dated 2015).

Experiments:
TNBS-induced colitis [1] = assay: Intestinal permeability, FITC-labeled-dextran method, TNBS-colitis model; type: in vivo; details: TNBS-colitis mice; 60 mg/kg i.p.; FITC-dextran gavage after 20 hours, serum four hours later; compared to vehicle control
Text: The effectiveness of compounds and methods of the present invention on intestinal barrier protection and treatment of inflammatory bowel disease (IBD) in TNBS (2,4,6-trinitrobenzene sulfonic acid)-induced colitis, an established animal model of inflammatory bowel disease, was examined. TNBS-induced colitis was induced in mice using a modification of techniques previously described. (See Morris et al (1989) Gastroenterology 96:795-803; Boirivant et al (1998) J Exp Med 188:1929-1939; Karhausen et al (2004) J Clin Invest 114:1098-1106.) Mice were shaved on the abdomen (causing total depletion of hair and microlesions) and were then sensitized to subsequent treatment by epicutaneous application of 1% TNBS (Sigma-Aldrich) in 100% ethanol on day minus 7. Seven days later, on day 0, animals were sedated with a 2.5% Tribromoethanol solution in phosphate-buffered saline (14 μl/g body weight), followed by intrarectal administration of a 2.5% TNBS solution in 50% ethanol (5 μl/g body weight). Administration of the 2.5% TNBS solution was carried out using an epidural catheter ([…] Plus Epidural Catheter, Arrow International), which was inserted approximately 6 cm ab ano followed by release of the TNBS solution. […] Four hours later, changes in intestinal permeability were determined by measurement of serum FITC-dextran levels.

TNBS-induced colitis [2] = assay: Weight loss in TNBS-colitis model; type: in vivo; details: TNBS-colitis mice; for initial body weight loss: compared to vehicle-control treated TNBS-colitis animals; for average body weight (of initial body weight) at day 3: vehicle-treated approximately 92%
Text: The effectiveness of compounds and methods of the present invention on intestinal barrier protection and treatment of inflammatory bowel disease (IBD) in TNBS (2,4,6-trinitrobenzene sulfonic acid)-induced colitis, an established animal model of inflammatory bowel disease, was examined. TNBS-induced colitis was induced in mice using a modification of techniques previously described. (See Morris et al (1989) Gastroenterology 96:795-803; Boirivant et al (1998) J Exp Med 188:1929-1939; Karhausen et al (2004) J Clin Invest 114:1098-1106.) Mice were shaved on the abdomen (causing total depletion of hair and microlesions) and were then sensitized to subsequent treatment by epicutaneous application of 1% TNBS (Sigma-Aldrich) in 100% ethanol on day minus 7. Seven days later, on day 0, animals were sedated with a 2.5% Tribromoethanol solution in phosphate-buffered saline (14 μl/g body weight), followed by intrarectal administration of a 2.5% TNBS solution in 50% ethanol (5 μl/g body weight). Administration of the 2.5% TNBS solution was carried out using an epidural catheter ([…] Plus Epidural Catheter, Arrow International), which was inserted approximately 6 cm ab ano followed by release of the TNBS solution. To ensure the continuance of the TNBS solution in the colon, mice were suspended in a vertical position for at least 5 minutes following administration. Vehicle control animals received a corresponding volume of 50% ethanol solution alone. Unless otherwise indicated, compounds of the invention were administered to animals intraperitoneally (i.p.) as a solution. Animals were dosed with compound (40 mg/kg/day or 20 mg/kg/day) on day minus 1, day 0, and day 1, or exclusively on day 0 and day 1, by i.p. injection. On day 0, TNBS treatment was performed on animals 4 hours after injection of compound. The effect of methods and compounds of the present invention on weight loss associated with inflammatory bowel disease was studied using an established animal model of colitis (described above in Example 1). Monitoring weight loss is a reliable method to assess TNBS-colitis severity in this animal model, as previously described. (See Neurath et al (2000) Int Rev Immunol 19:51-62.) Animals were administered Compound A (20 mg/kg or 40 mg/kg, i.p.) or vehicle control on day minus 1, day 0, and day 1. TNBS-colitis was induced in mice on day 0, as described above in Example 1. Body weight of the mice was monitored following induction of TNBS-colitis. […] Animal body weight was monitored each day for 3 days.

[3] = 20 mg/kg i.p. on day minus 1, day 0, day 1
[4] = 40 mg/kg i.p. on day minus 1, day 0, day 1

O=C(O)CNC(=O)c1ncc2cc(Sc3ccccc3)ccc2c1O [Compound A, [(4-Hydroxy-7-phenylsulfanyl-isoquinoline-3-carbonyl)-amino]-acetic acid]
serum FITC-dextran levels (intestinal permeability) (TNBS-induced colitis [1]): lower levels of serum FITC-dextran
initial body weight loss (TNBS-induced colitis [2]; [3]): reduction in the extent of initial body weight loss
average body weight (of initial body weight) at day 3 (TNBS-induced colitis [2]; [3]): approximately 95%
body weight gain (recovery from weight loss) by day 3 (TNBS-induced colitis [2]; 20 mg/kg or 40 mg/kg i.p. on day minus 1, day 0, day 1, compared to vehicle/control-treated TNBS-colitis animals): greater increase in body weight gain
initial body weight loss (TNBS-induced colitis [2]; [4]): reduction in the extent of initial body weight loss
average body weight (of initial body weight) at day 3 (TNBS-induced colitis [2]; [4]): ~97%
